Data: ChEMBL document CHEMBL5727875, “Substituted bicycle heterocyclic derivatives useful as ROMK channel inhibitors” (2020)
pIC50: −log10 of the molar value.

Molecular target: T1, ATP-sensitive inward rectifier potassium channel 1 (Homo sapiens, UniProt P48048)
T1 sequence (P48048 whole entry): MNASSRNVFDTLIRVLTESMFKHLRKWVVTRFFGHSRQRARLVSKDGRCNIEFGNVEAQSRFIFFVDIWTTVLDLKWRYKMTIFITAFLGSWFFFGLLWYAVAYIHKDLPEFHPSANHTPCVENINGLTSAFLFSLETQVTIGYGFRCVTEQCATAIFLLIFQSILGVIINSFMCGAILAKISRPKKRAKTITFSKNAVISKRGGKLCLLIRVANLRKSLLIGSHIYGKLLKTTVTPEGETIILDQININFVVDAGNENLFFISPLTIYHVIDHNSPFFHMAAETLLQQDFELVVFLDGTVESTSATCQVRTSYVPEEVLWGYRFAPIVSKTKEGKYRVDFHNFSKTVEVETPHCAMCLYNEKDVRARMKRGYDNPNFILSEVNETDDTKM
Assay: Electrophysiology Assay: The coverslip plated with cells was placed in the experiment chamber perfused with bath solution composed of (in mM): 135 NaCl, 5 KCl, 2 CaCl2), 1 MgCl2, 10 HEPES, 5 Glucose (pH 7.4). Patch pipettes with resistance between 2-5 Megaohms, when filled with a solution containing (in mM): 135 KCl, 1 EGTA, 1 MgCl2, 10 HEPES, 2 Na2ATP (pH 7.3), were used to form gigaseals. The …

With `Cc1c([C@@H](O)CNCc2cnn(-c3ccc4oc(=O)n(C)c4c3)c2)ccc2c1COC2=O` the pIC50 was 7.92.
